The results in this text go back to patent US9133197B2, “Oxidated derivatives of triazolylpurines useful as ligands of the adenosine A2A receptor and their use as medicaments” (SIGMA-TAU INDUSTRIE FARMACEUTICHE RIUNITE S.P.A., priority 2009, dated 2015).

SMILES strings stand for the structures.

T1 sequence (P29274 whole entry): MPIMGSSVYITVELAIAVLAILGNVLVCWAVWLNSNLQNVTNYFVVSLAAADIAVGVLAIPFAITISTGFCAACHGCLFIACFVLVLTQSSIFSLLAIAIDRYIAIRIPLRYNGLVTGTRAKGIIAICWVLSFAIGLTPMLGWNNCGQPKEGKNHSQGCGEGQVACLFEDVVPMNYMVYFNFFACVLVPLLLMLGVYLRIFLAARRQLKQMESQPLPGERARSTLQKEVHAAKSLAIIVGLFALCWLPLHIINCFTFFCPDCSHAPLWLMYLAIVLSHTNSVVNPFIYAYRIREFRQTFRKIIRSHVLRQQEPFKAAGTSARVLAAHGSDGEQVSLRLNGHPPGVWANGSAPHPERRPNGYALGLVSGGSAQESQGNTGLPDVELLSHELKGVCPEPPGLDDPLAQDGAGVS
Sequence of human adenosine A1 receptor (P30542 whole entry): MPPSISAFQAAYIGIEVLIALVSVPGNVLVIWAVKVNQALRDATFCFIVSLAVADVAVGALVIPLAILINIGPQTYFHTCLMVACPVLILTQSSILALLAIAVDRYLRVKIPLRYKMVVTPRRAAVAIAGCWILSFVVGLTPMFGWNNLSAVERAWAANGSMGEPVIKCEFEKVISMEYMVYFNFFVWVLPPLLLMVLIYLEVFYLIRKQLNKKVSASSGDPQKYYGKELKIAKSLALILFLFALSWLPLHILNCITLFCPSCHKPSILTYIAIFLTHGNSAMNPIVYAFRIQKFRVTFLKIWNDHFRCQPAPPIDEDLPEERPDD

The first experiment addresses T1, human adenosine A2a receptor (Homo sapiens (Human), UniProt P29274). Nature of the experiment: Inhibition of NECA-induced cAMP accumulation in HEK 293 cells. The format is cell-based. Particulars: HEK 293 cells expressing human A2a; 100 nmol/l NECA; mean of four experiments. As for the experimental part:
The compounds of the present invention were tested to assess their capacity to inhibit cAMP accumulation induced by the A2A agonist 5′-N-ethylcarboxamidoadenosine (NECA).
cAMP quantitative determination was performed with an enzyme immunoassay system (cat. RPN2255, Amersham Biosciences) according to manufacturer's instructions. HEK 293 cells, stably expressing the human adenosine A2a receptor gene (PerkinElmer, Boston, Mass., USA, cat. RBHA2AC), were grown in Falcon flasks in DMEM (Cambrex, Verviers, Belgium) supplemented with 10% FBS (Cambrex), 1 mmol/l sodium pyruvate (Sigma-Aldrich, St. Louis, Mo., USA), and 0.4 mg/ml G418 (Sigma-Aldrich) at 37° C. in a 5% CO2 atmosphere. Cells were plated on 96-well dishes at a concentration of 10^3 cells/well 48 hours before test compound exposure. Before cell stimulation with the compounds, cells were treated for 10 min at 37° C. with 0.5 mmol/l of the phosphodiesterase inhibitor Ro 20-1724 (Sigma-Aldrich) and with 2 U/ml of adenosine deaminase (ADA, Sigma-Aldrich). Medium was then changed with fresh medium containing scalar concentrations of test compounds (10^−10-10^−4 mol/l) at 37° C. and, after 10 min, 100 nmol/l NECA was added. cAMP was extracted 20 min after and quantified.
Data were analyzed by nonlinear regression analysis with GraphPad PRISM commercial software. Test compound concentrations causing a half maximal inhibition of control values (IC50 calculated by GraphPad Prism software) was reported (mean±SEM of four independent experiments).
(In general: Changes in cAMP serve as a functional read-out for many G protein-coupled receptors.)
In the case of `CC(=O)CCc1nc(N)c2nc(-n3nccn3)n(C)c2n1` [Example 7, 4-(6-Amino-9-methyl-8[1,2,3]triazol-2-yl-9H-purin-2-yl)-butan-2-one], the half-inhibitory concentration (IC50) amounted to 990 nM.

Turning to `C[C@@H](O)CCc1nc(N)c2nc(-n3nccn3)n(C)c2n1` [Example 4, (R)-4-(6-Amino-9-methyl-8-[1,2,3]triazol-2-yl-9H-purin-2-yl)butan-2-ol], the half-inhibitory concentration (IC50) is 420 nM.

The molecule `Cn1c(-n2nccn2)nc2c(N)nc(CCCCO)nc21` [Example 1, 4-(6-Amino-9-methyl-8[1,2,3]triazol-2-yl-9H-purin-2-yl)butan-1-ol] displayed an IC50 of 2120 nM.

The subject of a further experiment is battery of 51 different receptors. The experiment is described as follows: Selectivity profile: affinity toward a battery of 51 different receptors. The format is binding, human. The conditions noted are these: tested at 10 μM. From the text: The majority of the 51 assays were human recombinant receptors of the following types: adenosine, adrenergic, cannabinoid, dopamine, GABA, histamine, melatonin, muscarinic, prostanoid and serotonin receptors belonging to non peptide receptors family; angiotensin-II, bradychinin, chemokines, cholecistokinin, endothelin, galanin, melacortin, neurokinin, neuropeptide Y, neurotensin, opioid and opioid like, somatostatin, vasoactive intestinal peptide and vasopressin receptors belonging to peptide receptors family; Ca^2+ channel, K^+ channel and Na^+ channel belonging to the ion channel family and dopamine, norepinephrine and serotonin belonging to the amine transporters receptors family.” These three compounds were tested at a concentration of 10 μM.
For `Cn1c(-n2nccn2)nc2c(N)nc(CCCCO)nc21` [Example 1, 4-(6-Amino-9-methyl-8[1,2,3]triazol-2-yl-9H-purin-2-yl)butan-1-ol], the “affinity toward 51 receptors” value is on record as “none of them demonstrated any substantial affinity”.

Another experiment has as its system 6-OHDA lesioned rats. Nature of the experiment: Enhancement of L-DOPA antiparkinsonian activity, 6-OHDA lesioned rats. The format is in vivo, Rats (Sprague Dawley). The conditions noted are these: 10, 20, 40 mg/kg with threshold dose of L-Dopa (6 mg benserazide + 3 mg L-DOPA); 6-OHDA rats. The procedure: Rats (Sprague Dawley) under chloral hydrate (400 mg/kg) anaesthesia were placed in a Kopf stereotaxic apparatus. Through a stainless steel cannula, 6-OHDA was injected at a rate of 1 μl/min into the left medial forebrain bundle at coordinates A=−2.2, L=+1.5 and V=−7.8, according to the Pellegrino atlas. All rats, including shams, were treated with desipramine (10 mg/kg) 10 min before anaesthesia to prevent damage to noradrenergic neurons.
Two weeks after the 6-OHDA injection, all animals were tested for their contra lateral rotation capacity in response to 30 mg/kg i.p. benserazide followed by 50 mg/kg i.p. of L-Dopa 30 min later. Rats not showing at least 200 contra lateral rotations within the 3 h testing period were eliminated from the study. One week after this test, selected animals were randomized to be enrolled in three studies. Each study involved seven groups of eight animals.
Tested compounds (ST3829, ST3932 and ST4206) were dissolved in a solution containing 10% sucrose and 0.3% Tween 80 in sterile water in order to obtain three different dosage forms (i.e., 10, 20 and 40 mg/kg).
In groups 5, 6 and 7 benserazide was administered first, followed by the tested compound 25 min after and finally by L-DOPA 5 min later.
For `CC(=O)CCc1nc(N)c2nc(-n3nccn3)n(C)c2n1` [Example 7, 4-(6-Amino-9-methyl-8[1,2,3]triazol-2-yl-9H-purin-2-yl)-butan-2-one], the “contralateral turning behaviour induced by L-Dopa” value was “increased the contralateral turning behaviour induced by L-Dopa”.

Another experiment relates to haloperidol-induced catalepsy in CD1 mice. Nature of the experiment: Haloperidol-induced catalepsy mice model. Particulars: oral 10, 20 or 40 mg/kg, haloperidol 2 mg/kg i.p., AUC of catalepsy time over 7 h. The format is in vivo. The procedure: Haloperidol (2 mg/kg) was injected i.p. to CD1 mice 2.5 h before oral administration of ST3932 or ST4206. The latter were administered at doses of 10, 20 or 40 mg/kg.
Then, each CD1 mouse was gently placed by its forepaws on a wire at a height of 4.5 cm. Catalepsy was measured as the time (expressed in seconds) necessary for the animal to step down with at least one forepaw, with an end point of 60 seconds, time after which the mouse was gently removed from the wire. Then, catalepsy was scored every 60 min for seven h.
All data were expressed both as individual and mean values, plus or minus standard error (Mean±SEM) of catalepsy time in seconds. Statistical analysis was performed using sigma stat program. After calculation of AUC throughout 7 hours, the one-way ANOVA followed by Dunnett's test were used.
With `CC(=O)CCc1nc(N)c2nc(-n3nccn3)n(C)c2n1` [Example 7, 4-(6-Amino-9-methyl-8[1,2,3]triazol-2-yl-9H-purin-2-yl)-butan-2-one], the “antagonism of haloperidol-induced catalepsy” value is “significantly antagonized haloperidol-induced catalepsy in a dose-dependent manner”.

The target in a further experiment is T1, human adenosine A2a receptor. The experiment is described as follows: A2a receptor competition binding assay ([3H]ZM241385). Particulars: membranes of HEK293 cells expressing human A2a; [3H]ZM241385 2 nmol/l; Ki from IC50 by Cheng and Prusoff. The procedure: HEK293 cells, stably expressing the human adenosine A2a receptor gene (PerkinElmer, Boston, Mass., USA, cat. RBHA2AC), were grown in Falcon flasks in DMEM (Cambrex, Verviers, Belgium) supplemented with 10% FBS (Cambrex), 1 mmol/l sodium pyruvate (Sigma-Aldrich, Saint Louis, Mo., USA), 0.4 mg/ml G418 (Sigma-Aldrich) at 37° C. in a 5% CO2 atmosphere. For radioligand binding experiments, the cells were collected at 80% of confluence, in 5 mmol/l Tris-HCl (Sigma-Aldrich), pH 7.4, containing 2 mmol/l EDTA, counted, washed in PBS (Cambrex), resuspended in incubation buffer A containing 50 mmol/l Tris-HCl, pH 7.4, 10 mmol/l MgCl2 (Sigma-Aldrich) and homogenized using an Ultra Turrax T25. The membranes were centrifuged and homogenized once again and the final pellet was stored at −80° C. until use. Prior to the competition binding assay, the pellet was resuspended in buffer A at the desired protein concentration and membrane suspension was incubated with 2 U/ml adenosine deaminase (ADA, Sigma-Aldrich) for 30 min at 37° C. to remove endogenous adenosine.
The protein concentration of membrane suspension was determined using the Bradford method (Pierce, Rockford, Ill., USA) with bovine albumin as standard. Competition binding experiments were performed by incubating membranes (5-10 μg of protein/sample) with a single concentration of the A2a antagonist [^3H]ZM241385 (Biotrend, Cologne, Germany) (2 nmol/l), in the presence of various concentrations (ranging from 10^−5 to 10^−11 mol/l) of test and reference compounds in 96-well filter plates (MultiScreen system, cat. MAFBN0B10, Millipore, Billerica, Mass., USA) for one h at 4° C. in a total volume of 200 μl/well of appropriate buffer (50 mmol/l Tris-HCl, pH 7.4, 10 mmol/l MgCl2). Nonspecific binding was determined in the presence of 10 μmol/l cold ZM241385 (Tocris, Ellisville, Mo., USA). At the end of incubation, bound and free radioligands were separated by filtering the 96-well filter plates using a Millipore filtration apparatus (MultiScreenHTS vacuum manifold). Filter plates were then washed several times with ice-cold buffer (50 mmol/l Tris-HCl, pH 7.4) and filter-bound radioactivity measured using a MicroBeta counter (PerkinElmer) after addition of 30 μl/well of OptiPhase SuperMix scintillation cocktail (PerkinElmer). Four experiments were performed in triplicate by JANUS® automated workstation (Perkin Elmer).
Data were analyzed by nonlinear regression analysis with GraphPad PRISM commercial software and expressed as IC50, defined as the concentration of compounds that inhibits 50% of [^3H]ZM241385 binding. Inhibitory binding constant (Ki) values were calculated from IC50 values according to the Cheng and Prusoff equation Ki=IC50/(1+[C]/Kd), where [C] is the concentration of the radioligand and Kd its dissociation constant.
Take `CC(=O)CCc1nc(N)c2nc(-n3nccn3)n(C)c2n1` [Example 7, 4-(6-Amino-9-methyl-8[1,2,3]triazol-2-yl-9H-purin-2-yl)-butan-2-one]: the Ki was 12 nM. That is a double-digit nanomolar value.

As to `C[C@@H](O)CCc1nc(N)c2nc(-n3nccn3)n(C)c2n1` [Example 4, (R)-4-(6-Amino-9-methyl-8-[1,2,3]triazol-2-yl-9H-purin-2-yl)butan-2-ol], the inhibition constant (Ki) is 8 nM.

For `Cn1c(-n2nccn2)nc2c(N)nc(CCCCO)nc21` [Example 1, 4-(6-Amino-9-methyl-8[1,2,3]triazol-2-yl-9H-purin-2-yl)butan-1-ol], the affinity corresponds to a Ki of 53 nM.

The target in the next experiment is human adenosine A1 receptor (Homo sapiens (Human), UniProt P30542). The experiment is described as follows: A1 receptor competition binding assay ([3H]DPCPX). Particulars: membranes of CHO-K1 cells expressing human A1; [3H]DPCPX 1.7 nmol/l; Ki from IC50 by Cheng and Prusoff. As for the experimental part:
Competition binding experiments have been performed incubating membranes from CHO-K1 cells stably transfected with the human adenosine A1 receptor (cat. ES-010-M400UA, Perkin Elmer, Boston, Mass., USA) (5-10 μg of protein/sample) with a single concentration of [3H]DPCPX (1.7 nmol/l) (Perkin Elmer), in the presence of various concentrations (ranging from 10^−5 to 10^−10 M) of cold DPCPX, ST4206 and ST4208 in 96-well filter plates (MultiScreen system, cat #MAFBN0B10, Millipore, Billerica, Mass., USA) for 60 min at 25° C. in a total volume of 200 μL/well of 25 mmol/l Hepes, 5 mmol/L MgCl2, 1 mmol/l CaCl2, 100 mmol/L NaCl, pH 7.4 (all from Sigma-Aldrich). Non-specific binding has been determined in the presence of 250 μmol/l of cold DPCPX (8-cyclopentyl-1,3-dipropylxanthine, Sigma-Aldrich). At the end of incubation, bound and free radioligands have been separated by filtering the 96-well filter plates using a Millipore filtration apparatus (MultiscreenHTS vacuum manifold). Filter plates have been washed several times with ice-cold buffer (50 mmol/l Tris-HCl, pH 7.4) and filter-bound radioactivity measured using a MicroBeta counter (PerkinElmer) after addition of 30 μL/well of OptiPhase SuperMix scintillation cocktail (PerkinElmer).
Data have been analyzed using nonlinear regression with GraphPad PRISM commercial software. Data will be expressed as test compound concentration causing a half maximal inhibition of control values (IC50). Inhibitory binding constant (Ki) values will be calculated from IC50 values, according to the Cheng and Prusoff equation K1=IC50/(1+[C]/Kd), where [C] is the concentration of the radioligand and Kd its dissociation constant.
`CC(=O)CCc1nc(N)c2nc(-n3nccn3)n(C)c2n1` [Example 7, 4-(6-Amino-9-methyl-8[1,2,3]triazol-2-yl-9H-purin-2-yl)-butan-2-one] showed a Ki of 197 nM.

The molecule `Cn1c(-n2nccn2)nc2c(N)nc(CCCCO)nc21` [Example 1, 4-(6-Amino-9-methyl-8[1,2,3]triazol-2-yl-9H-purin-2-yl)butan-1-ol] came in with an inhibition constant (Ki) of 51 nM.

As a reminder, the IC50 is the concentration needed to halve the response being measured. The low end stands for inhibition by little substance, the high end for a need for much substance. A word on the Ki: it is a dissociation constant, usually derived from enzyme kinetics or from competition with a known ligand. Higher therefore signals lower affinity.
